This is an account of results in patent US20060110789A1, “Methods to mediate polyketide synthase module effectiveness” (priority 2002, published 2006).

For one experiment, the target named is T1, module 6+TE ((5)M6+TE) (Saccharopolyspora erythraea, UniProt Q03133, DEL53-1503).
T1 construct: The protein was, in each case, a single module of the DEBS PKS fused to the thioesterase (TE) termination region of module 6; first 39 amino acids of module 5 (N-ERL); made in house; host or cells: E. coli (BL21(DE3) with sfp)
Particulars: NAC thioester substrate, shown earlier; cited from earlier work.

In another experiment the test system is (5)M3+TE and (3)M3+TE. Particulars: either module 3+TE derivative, previously shown; cited from earlier work.
In another experiment the target is T2, module 2+TE ((5)M2+TE) (Saccharopolyspora erythraea, UniProt Q03131+Q03133).
T2 construct: The protein was, in each case, a single module of the DEBS PKS fused to the thioesterase (TE) termination region of module 6; first 39 amino acids of module 5 (N-ERL); made in house; host or cells: E. coli (BL21(DE3) with sfp)
Particulars: NAC thioester substrate, shown earlier; cited from earlier work.

The subject of experiment [1] is (5)M2+TE, (5)M5+TE, and (5)M6+TE. Particulars: Wu et al. 2000; cited from earlier work.
For the next experiment, the system named is module 5+TE ((5)M5+TE). Particulars: NAC thioester substrate at saturating concentration, shown earlier; cited from earlier work.
Experiment [2] relates to DEBS module 3 ((3)M3+TE or (5)M3+TE). Kind of experiment: Substrate transfer and elongation assay, acceptor DEBS module 3. Type of experiment: biochemical. Particulars: 20 μM substrate; FIG. 27 A: diketide-ACP2(2)+(3)M3+TE; B: diketide-ACP2(4)+(3)M3+TE; C: diketide-ACP4(4)+(5)M3+TE; D: diketide-ACP4(4)+(3)M3+TE. As to the method:
(§1) Substrate transfer and elongation assays. Qualitative assays were performed with a diketide-ACP or diketide-PCP substrate either taken directly from the so phosphopantetheinlyation reaction or after further purification of the substrate. These assays were performed with 20 μM diketide-ACP/PCP substrate for 2 hours in the following reaction conditions: 1 μM acceptor module, 0.5 mM ^14C-methylmalonyl CoA, 4 mM NADPH in buffer C, 30° C. After quenching by addition of 250 μL EtOAc and vortexing, the products were extracted with 2×250 μL EtOAc, resolved on a silica gel TLC plate, and visualized on a Packard InstantImager.
The kinetics of substrate transfer at the module 2-module 3 interface followed by elongation and product release were examined as a function of the k60 μM and kcat/KM values of the overall reaction. […] In many cases, the k60μm values approximate the maximal overall turnover rates, as determined by back calculating the KM value for the reactions. True saturation kinetics were not practical because of the technical limitations (e.g., solubility) and limited supply associated with high molecular weight substrates such as diketide-ACP and diketide-PCP. kcat/KM values were determined by competitive assay of the substrate of interest against a substrate with a known kcat/KM value, as previously described (Wu, et al., (2001) J. Am. Chem. Soc. 123, 6465-6474). […]

Another experiment concerns the target T3, (5)M2+TE (Saccharopolyspora erythraea, UniProt Q03131+Q03133).
T3 construct: The protein was, in each case, a single module of the DEBS PKS fused to the thioesterase (TE) termination region of module 6; first 39 amino acids of module 5 (N-ERL); made in house; host or cells: E. coli (BL21(DE3) with sfp)
The experiment can be described thus: Substrate transfer and elongation assay, acceptor DEBS module 2. Type of experiment: biochemical. On the procedure: as §1
(§2) The kinetics of substrate transfer at the module 2-module 3 interface followed by elongation and product release were examined as a function of the k60 μM and kcat/KM values of the overall reaction. The k60 μm values reported here represent the apparent overall rate of product formation at an initial substrate concentration of 60 μM. In many cases, the k60μm values approximate the maximal overall turnover rates, as determined by back calculating the KM value for the reactions. True saturation kinetics were not practical because of the technical limitations (e.g., solubility) and limited supply associated with high molecular weight substrates such as diketide-ACP and diketide-PCP. kcat/KM values were determined by competitive assay of the substrate of interest against a substrate with a known kcat/KM value, as previously described (Wu, et al., (2001) J. Am. Chem. Soc. 123, 6465-6474). […]
(§3) These reactions were quenched by the addition of 80 μL 12.5% SDS to 2 μL reaction mixture and immediate vortexing. […] After removing the organic solvents in vacuo, the residual products were then spotted onto a TLC plate (Baker-flex 250 uM silica gel), resolved in 60% EtOAc/40% hexanes, and the radioactive spots were visualized and quantified on a Packard InstantImager. […]

For experiment [3], the system named is DEBS module 5 ((5)M5+TE or (3)M5+TE). The experiment can be described thus: Substrate transfer and elongation assay, acceptor DEBS module 5. Type of experiment: biochemical. On the procedure: as §1, §2, §3
In a further experiment the target is T4, (5)M6+TE (Saccharopolyspora erythraea, UniProt Q03133, DEL53-1503).
T4 construct: The protein was, in each case, a single module of the DEBS PKS fused to the thioesterase (TE) termination region of module 6; first 39 amino acids of module 5 (N-ERL); made in house; host or cells: E. coli (BL21(DE3) with sfp)
The experiment can be described thus: Substrate transfer and elongation assay, acceptor DEBS module 6. Type of experiment: biochemical. On the procedure: as §1, §2, §3

Where [4] appears, read: versus diketide-ACP4(4), stated jointly for modules 2 and 6.

Usually kcat stands for the number of substrate molecules converted per active site and unit of time at saturation.

Consider `CCC(O)C(C)C(=O)SCCNC(C)=O` (stereo not drawn) [2a], for which the kcat at module 6+TE ((5)M6+TE) is 0.283 s⁻¹; on module 2+TE ((5)M2+TE) it was 0.0767 s⁻¹. Also, the “qualitative incorporation of NAC thioesters” value with (5)M3+TE and (3)M3+TE is “readily incorporated and elongated”. Further, in experiment [1], the “qualitative turnover of NAC thioesters” value is given as “substrates for the three modules”. Moreover, in the experiment on module 5+TE ((5)M5+TE), the “kcat (elongation rate constant)” value is 0.00417 s⁻¹.
As to “diketide-ACP4(Ø): diketide on isolated ACP4 domain without linker region”, the “qualitative transfer of diketide to module 3 (triketide lactone formation)” value in experiment [2] was “not able to efficiently transfer substrates”. In addition, the “qualitative transfer of diketide to (5)M2+TE” value in the experiment with (5)M2+TE (20 μM substrate, 2 hours) was “observed”. In addition, the “drop of k60 μM when linker interactions are eliminated” value with (5)M2+TE (setting [4]) and with (5)M6+TE (setting [4]) was “approximately 10 fold” throughout. Moreover, the “drop of kcat/KM when linker interactions are eliminated” value with (5)M2+TE (setting [4]) and with (5)M6+TE (setting [4]) was 70-300 fold in each case. Also, the “qualitative transfer of diketide to module 5 (triketide lactone formation)” value in experiment [3] (20 μM substrate, FIG. 28 A: diketide-ACP4(4)+(5)M5+TE, B: diketide-ACP4(4)+(3)M5+TE, C: diketide-ACP2(4)+(5)M5+TE, D: diketide-ACP2(2)+(5)M5+TE) was “Formation of the expected triketide lactone was observed”. Moreover, the k60μm was determined as 0.27 min⁻¹ in experiment [3] (acceptor (3)M5+TE, FIG. 29 B) and 0.49 min⁻¹ in [3] (acceptor (5)M5+TE, FIG. 29 A). In the experiment with (5)M6+TE (20 μM substrate, 2 hours), the “qualitative transfer of diketide to (5)M6+TE” value is “observed”.
